Holding throughout (test): growth of human tumour cells (NCI), 48 h
Assay [1] has as its system SK-MEL-28.
Assay [2] has as its system SF-539.
Assay [3] relates to SK-MEL-2.
The subject of assay [4] is KM12.
Assay [5] relates to LXFL 529.
Assay [6] deals with EKVX.
Assay [7] concerns HCC 2998.
The test system of assay [8] is M14.
The test system of assay [9] is RXF 631.
The subject of assay [10] is U-251.
Assay [11] deals with SR.
Assay [12] concerns KM-20L2.
The test system of assay [13] is NCI-H226.
Assay [14] relates to K562.
Assay [15] deals with UACC-257.
Assay [16] has as its system CCRF-CEM.
Assay [17] has as its system LOX IMVI.
Assay [18] concerns HL-60.
Assay [19] has as its system TK-10.
Assay [20] relates to ACHN.

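These data come from cells grown in 96-well plates and exposed to compound for 48 hours at five concentrations. GI50 marks 50% less growth.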 The source made the active and inactive calls. Cut-off read from the data, not from the text of the source: active = GI50 up to about 1.1 µM and inactive = higher. Some results are limits rather than exact numbers.

Experimental findings from ChEMBL document CHEMBL1201862, “PubChem BioAssay data set” (2004) are described below.

On to `COc1ccc(C2C(C#N)=C(O)NC(O)=C2C#N)cc1OC`, for which the GI50 in assay [1], in [2], in assay [3], in [4], in assay [5] and in assay [6] was > 100 µM (inactive) each time. The GI50 in assay [7], in [8], in assay [9], in [10], in assay [11] and in assay [12] was > 100 µM (inactive) in each case.
Turning to `CCN1CC2(CO)CCC(OC)C34C5CC6C(OC)CC(O)(C5C6OC)C(O)(C(OC)C23)C14` (centres undefined), the GI50 is > 375 µM (inactive) in assay [1]; > 375 µM (inactive) in [13]; > 375 µM (inactive) in assay [14]; > 375 µM (inactive) in assay [2]; > 59.4 µM (inactive) in assay [3]; > 375 µM (inactive) in assay [4]. Besides, the GI50 in [6] is > 59.4 µM (inactive); in assay [15], > 375 µM (inactive); in [16] it was > 375 µM (inactive); in [7] it was > 375 µM (inactive); in [10], > 305 µM (inactive); in assay [12] it was > 197 µM (inactive). Moreover, the GI50 in [17] and in assay [18] was > 375 µM (inactive) throughout.
As for `CN(C)CCNCc1c2ccccc2c(CNCCN(C)C)c2ccccc12`, the GI50 was 63.8 µM (inactive) in [1]; 19.5 µM (inactive) in assay [13]; 17.8 µM (inactive) in [14]; 28.2 µM (inactive) in assay [2]; 22.4 µM (inactive) in [3]; 39.4 µM (inactive) in [4]. The GI50 in assay [6] was 65.8 µM (inactive); in assay [15], 18 µM (inactive); in assay [16], 20.8 µM (inactive); in assay [7], 10.7 µM (inactive); in [10], 20.9 µM (inactive); in assay [12], 7.29 µM (inactive). Further, the GI50 in assay [17] is 18.1 µM (inactive); in assay [18] it was 20.5 µM (inactive).
For `O=C(O)CCC(NC(=O)c1ccc(Nc2nc3ccc(C(F)(F)F)cc3nc2-c2ccccc2)cc1)C(=O)O` (centres undefined), the GI50 was > 100 µM (inactive) in [1]; > 100 µM (inactive) in assay [13]; 29.6 µM (inactive) in [14]; > 100 µM (inactive) in assay [2]; > 100 µM (inactive) in [3]; > 100 µM (inactive) in [4]. Also, the GI50 is > 100 µM (inactive) in [6]; > 100 µM (inactive) in assay [15]; > 100 µM (inactive) in assay [16]; > 100 µM (inactive) in assay [7]; > 83 µM (inactive) in [10]; > 100 µM (inactive) in assay [12]. For the same compound, the GI50 in [17] and in assay [18] was > 100 µM (inactive) throughout.
With `CCC12CCC[C@@]13C=C[C@H](O3)C(C)(C)C2=O` (some centres undefined), the GI50 in assay [13], in assay [14], in assay [2], in assay [3], in [5] and in [6] was > 100 µM (inactive) throughout. The GI50 in [15], in assay [16], in [7], in [19], in [8] and in [9] was > 100 µM (inactive) each time. In addition, the GI50 in assay [10], in assay [11], in assay [12], in assay [17], in assay [20] and in assay [18] was > 100 µM (inactive) throughout.
With `S=C1NN=C2C(=C3CCCC4C5CCCCC5N2C34)N1` (centres undefined), the GI50 in assay [1] was > 100 µM (inactive); in assay [13] it was 0.678 µM (active); in assay [14] it was 38 µM (inactive); in assay [4], > 100 µM (inactive); in [15], > 100 µM (inactive); in [16], 37.2 µM (inactive). Also, the GI50 was > 100 µM (inactive) in [19]; > 100 µM (inactive) in assay [8]; 83.4 µM (inactive) in assay [11]; 56.4 µM (inactive) in assay [17]; > 100 µM (inactive) in [20]; > 100 µM (inactive) in assay [18].
